Test results published in patent US8388950B2, “Coenzyme Q10-containing water-soluble composition and process for production thereof” (Kaneka Corporation, priority 2005, dated 2013).

Assay: DSC determination of the crystallization peak of coenzyme Q10 (effect of preventing crystallization)
Format: physicochemical
Conditions: held at 80° C. 10 minutes, cooled to −50° C. at −5° C./min
Protocol: The component materials shown in Table 1 were warmed and dissolved at 60° C., and weighed out the appropriate amount on a measuring aluminum pan to make samples for DSC determination.
Using the samples obtained in Reference Examples 1 to 10, the effect of preventing coenzyme Q10 crystallization derived from a lipophilic sucrose fatty acid ester was determined by DSC (differential scanning calorimetry).
Detector: DSC6220 (manufactured by SII Nano Technology Inc.)
Determination condition: the crystallization peak (exothermic peak) of coenzyme Q10 was determined after retaining the samples at 80° C. for 10 minutes and then cooling them to −50° C. at a cooling rate of −5° C./rain.

DSC exothermic peak: −11.4 °C
Structure (SMILES): COC1=C(OC)C(=O)C(C/C=C(\C)CC/C=C(\C)CC/C=C(\C)CC/C=C(\C)CC/C=C(\C)CC/C=C(\C)CC/C=C(\C)CC/C=C(\C)CC/C=C(\C)CCC=C(C)C)=C(C)C1=O [compound 4, Coenzyme Q10]
